# In PMC3521585 (Journal of medicinal chemistry, 2009):
# Molecular target: Substance P receptors (GPI) (Cavia porcellus, UniProt P30547)
# Assay: Substance P antagonist assay in guinea pig ileum with naloxone
# Type: cell-based
# Conditions: against Substance P induced contraction, 1 μM naloxone, n = 4
# Substance P receptors (GPI), sequence (P30547 whole entry): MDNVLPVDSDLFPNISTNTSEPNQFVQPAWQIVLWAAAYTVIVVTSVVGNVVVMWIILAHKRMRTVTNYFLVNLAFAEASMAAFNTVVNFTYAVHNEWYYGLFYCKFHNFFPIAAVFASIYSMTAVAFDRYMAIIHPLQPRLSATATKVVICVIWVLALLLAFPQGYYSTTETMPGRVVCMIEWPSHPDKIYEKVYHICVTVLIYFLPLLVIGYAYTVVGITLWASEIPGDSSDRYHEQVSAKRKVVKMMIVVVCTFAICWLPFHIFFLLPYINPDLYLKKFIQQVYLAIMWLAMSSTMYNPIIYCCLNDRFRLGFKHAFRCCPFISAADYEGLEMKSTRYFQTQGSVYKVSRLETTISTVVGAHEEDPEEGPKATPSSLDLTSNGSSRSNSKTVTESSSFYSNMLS
structure (smiles),measurement,value
"CC(=O)N[C@@H](Cc1c[nH]c2ccccc12)C(=O)OCc1cc(C(F)(F)F)cc(C(F)(F)F)c1 [L-732,138, Ac-Trp-O-3’,5’-Bzl(CF3)2]","Ke, GPI, Substance P antagonist",250 ± 87 nM
